{
  "source": "patent US12123010B2",
  "about": "“Plants having increased tolerance to herbicides” (BASF SE, priority 2017, dated 2024)",
  "key": {"[1]": {"tested_on": "Variant PPO Enzyme L397Q (Amaranthus PPO2)", "type": "biochemical", "settings": "variant L397Q vs wild type"}, "[2]": {"tested_on": "Variant PPO Enzyme F420V (Amaranthus PPO2)", "type": "biochemical", "settings": "variant F420V vs wild type"}},
  "data": [
    {"smiles": "CCOC(=O)COc1ncccc1Oc1nc(-n2c(=O)cc(C(F)(F)F)n(C)c2=O)c(F)cc1Cl", "note": "[Uracilpyridine 2, ethyl 2-[[3-[[3-chloro-5-fluoro-6-[3-methyl-2,6-dioxo-4-(trifluoromethyl)pyrimidin-1-yl]-2-pyridyl]oxy]-2-pyridyl]oxy]acetate]", "values": [
      {"measurement": "Tolerance Factor (R/S)", "setting": "[1]", "value": 7},
      {"measurement": "Tolerance Factor (R/S)", "setting": "[2]", "value": 567}
    ]}
  ]
}
